Legend:
[1] = 17O NMR of Gd complexes (water exchange, SBM fitting); format: physicochemical; set-up: A/ℏ: unit not given here; settings: for hyperfine coupling constant (AO/ℏ): 17O NMR fit, underlined values fixed during fitting; for water exchange rate kex^310 / ΔH‡ / ER / τRO^298 / A/ℏ / EV / Δ^2 / τV^298: 17O NMR; for water exchange rate kex^310 / ΔH‡: 9.4 T; for water exchange rate kex^310: 310 K; for ΔH‡ / ER / τRO^298 / A/ℏ / EV / Δ^2 / τV^298: best-fit; for ΔH‡: [Gd^3+]=25 mM; for ER: activation energy of rotational correlation time; for τRO^298: rotational correlation time; for A/ℏ: scalar coupling constant; for EV / Δ^2 / τV^298: sometimes fixed; for water exchange rate kex: slowest exchange rates, in 1/s; for faster water exchange rates: compared with GdL1 and GdL4; for empirical constant describing the outer sphere contribution to the 17O chemical shift, Cos: fitted
Description: Given that the rate of water exchange (kex) in these complexes is likely the limiting factor in determining the magnitude of r1 increase when the GdL-Zn complexes bind to HSA, further temperature dependent ^17O NMR studies were performed to evaluate the water exchange rates. A simultaneous analysis of ^17O reduced T1, T2, and chemical shift (Δωr) data were analyzed (Powell et al., 1996; Gonzalez et al., 1994; Martins et al., 2013; Martins et al., 2015) to estimate the q values, kex, and hyperfine coupling constants for GdL1-5.
^17O NMR experiments were performed at 9.4 T on a Bruker AVANCE III NMR spectrometer. The temperature was regulated by air flow controlled by a Bruker VT unit. The samples ([Gd^3+]=25 mM; [Dy^3+]=1 mM) were prepared in ^17O enriched water (10%) with the pH being maintained at 7.4 with 100 mM Tris buffer. The sample was loaded into a 18 μL spherical bulb (Wilmad-Lab Glass, Vineland, NJ) and placed inside a 5 mm NMR tube containing 400 μL of water to eliminate any susceptibility effects. Longitudinal relaxation rates (1/T1) were obtained by the inversion recovery method and transverse relaxation rates (1/T2) were obtained by the Carr-Purcell—Meiboom—Gill spin echo technique. The acidified water (pH=3.0) containing 10% enriched ^17O water was used as a reference for the measurements. For the DyL4 complexes (no HSA and with HSA+Zinc), acidified water solutions and 1 mM LaL4+3 mM HSA with zinc (1:1) were used as the corresponding references. The corresponding fittings were performed with the Scientist 3.0 software (Micromath®).
^17O NMR data have been analyzed within the framework of Solomon-Bloembergen-Morgan theory.
From the measured ^17O NMR relaxation rates and angular frequencies of the paramagnetic solutions, 1/T1, 1/T2 and ω, and of the acidified water reference, a1/T1A, 1/T2A and ωA, one can calculate the reduced relaxation rates and chemical shifts, 1/7′2, and Δωr, which may be written in Equations (A1)-(A3), where, 1/T1m, 1/T2m, is the relaxation rate of the bound water and Awn, is the chemical shift difference between bound and bulk water molecules, τm is the mean residence time or the inverse of the water exchange rate kex and Pm is the mole fraction of the bound water (Swift and Connick, 1962; Zimmerman and Brittin, 1957).
The outer sphere contributions to the ^17O relaxation rates 1/T1OS and 1/T2OS are being neglected according to previous studies (Micskei et al., 1993). Therefore, Equations (A1-A2) can be further simplified to Equations (A4) and (A5): […]
The exchange rate is supposed to obey the Eyring Equation. In Equation (A6) ΔS^‡ and ΔH^‡ are the entropy and enthalpy of activation for the water exchange process, and kex^298 is the exchange rate at 298.15 K.
In the transverse relaxation, the scalar contribution, 1/T2s, is the most relevant [Equation (A7)]. 1/τsl is the sum of the exchange rate constant and the electron spin relaxation rate [Equation (A8)].
The ^17O longitudinal relaxation rates in Gd^3+ solutions are the sum of the contributions of the dipole-dipole (dd) and quadrupolar (q) mechanisms as expressed by Equations (A11-A13) for non-extreme narrowing conditions, where γS is the electron and γ1 is the nuclear gyromagnetic ratio (γS=1.76×10^11 rad s^−1 T^−1, γ1=˜3.626×107 rad s^−1 T^−1), rGdO is the effective distance between the electron charge and the ^17O nucleus, I is the nuclear spin (5/2 for ^17O), x is the quadrupolar coupling constant and η is an asymmetry parameter:
In Equation (A3) the chemical shift of the bound water molecule, Δωm, depends on the hyperfine interaction between the Gd^3+ electron spin and the ^17O nucleus and is directly proportional to the scalar coupling constant, A/h, as expressed in Equation (A12) (Brittain and Desreux, 1984).
The isotopic Landé g factor is equal to 2.0 for the Gd^3+, B represents the magnetic field, and kB is the Boltzmann constant. […]

HSA [2] = target: T1, HSA (Homo sapiens, UniProt P02768); test: HSA dissociation constant by fluorescence competition with dansylglycine; format: binding; settings: one site competition fitting with dansylglycine; in presence of Zn^2+; read-out: KD(GdLZnHSA)
T1 construct: purchased Sigma-Aldrich
Description: The procedures reported by Esqueda et al were followed (2009). A solution containing 5 μM of dansylglycine (or warfarin), 5 μM HSA, 400 μM GdL plus one equivalent of Zn^2+ was prepared in TRIS buffer. Aliquots of this solution were 2-fold diluted serially ten times by addition of a solution which contained the same concentrations of dansylglycine (warfarin) and HSA but no agent. The fluorescence of 100 μL aliquots was measured in triplicate in 96 well plates. In a similar manner solutions containing agent, HSA but no dansylglycine (warfarin), were also included. Four 100 μL aliquots of the solution containing no agent (maximum fluorescent intensity) were also measured in the same 96 well plate, along with four 100 μL aliquots of HSA in buffer.
The excitation and emission wavelengths used for the dansylglycine: 360 and 465 nm, respectively. The excitation and emission wavelengths used for warfarin: 320 and 380 nm, respectively.

HSA [3] = target: T1, HSA; test: Proton relaxation enhancement (PRE) titrations with HSA; format: binding; settings: for r1^c (relaxivity of the bound state): HSA-bound GdL-Zn, from PRE fit; for Kd: fitting proton relaxation enhancement data to equation (1), 20 MHz, 310 K, read-out: KD(GdLZnHSA)
Description: Proton relaxation enhancement (PRE) titrations were performed to evaluate the binding of these agents to HSA under conditions where the concentration of HSA was varied while the concentration of GdL and Zn^2+ (1:1) were held constant (FIG. 6). […] These types of complexes only bind to HSA-binding site 2 of subdomain IIIA, so n was assumed=1.
Affinity constants to HSA were assessed by proton relaxation enhancement (PRE) measurements according to published procedures (Martins et al., 2013a; Martins et al., 2013b) The proton relaxation rates at increasing concentrations of protein were measured with a MRS-6 NMR analyzer (20 MHz, 310 K). For the E-titration, the concentrations of GdL complex (0.1 mM) and Zn(II) (0.1 mM) were kept constant, while the protein concentration was varied from 0 to 0.6 mM.

T1 sequence (P02768 25-609): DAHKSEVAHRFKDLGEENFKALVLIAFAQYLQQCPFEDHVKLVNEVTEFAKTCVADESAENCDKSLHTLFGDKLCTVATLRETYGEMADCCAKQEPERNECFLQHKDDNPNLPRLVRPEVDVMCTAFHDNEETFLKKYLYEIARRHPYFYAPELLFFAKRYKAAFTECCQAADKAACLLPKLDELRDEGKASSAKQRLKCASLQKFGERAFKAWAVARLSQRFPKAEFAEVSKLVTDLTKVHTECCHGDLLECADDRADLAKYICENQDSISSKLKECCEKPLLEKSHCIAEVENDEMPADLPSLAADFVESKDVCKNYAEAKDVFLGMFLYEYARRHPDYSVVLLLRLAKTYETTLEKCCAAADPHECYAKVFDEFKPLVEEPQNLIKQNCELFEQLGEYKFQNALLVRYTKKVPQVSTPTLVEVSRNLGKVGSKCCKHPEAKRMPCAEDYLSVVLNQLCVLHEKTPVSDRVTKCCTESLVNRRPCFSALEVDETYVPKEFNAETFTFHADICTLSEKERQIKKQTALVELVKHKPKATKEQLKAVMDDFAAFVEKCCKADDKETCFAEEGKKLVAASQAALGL

Compound | hyperfine coupling constant (AO/ℏ) [1] | water exchange rate kex^310 [1] | ΔH‡ [1] [kcal/mol] | ER [1] [kcal/mol] | τRO^298 [1] [ps] | A/ℏ [1] | EV [1] [kcal/mol] | Δ^2 [1] | τV^298 [1] [ps] | water exchange rate kex [1] | Kd (HSA [2]) [µM] | r1^c (relaxivity of the bound state) (HSA [3]) [s⁻¹ mM⁻¹] | Kd (HSA [3]) [µM] | faster water exchange rates [1] [fold] | empirical constant describing the outer sphere contribution to the 17O chemical shift, Cos [1]
O=C(O)CN1CCN(CC(=O)O)CCN(CC(=O)NCCN(Cc2ccccn2)Cc2ccccn2)CCN(CC(=O)O)CC1 [GdL1] | −4.0 ± 0.2 ×10^6 rad/s | 2.9 ± 0.1 ×10^6 s^−1 | 10.6 ± 0.239 | 4.95 ± 0.048 | 280 ± 11 | −4.0 ± 0.1 | 0.263 ± 0.024 | 0.10 ± 0.01 10^20 s^−2 | 4.6 ± 0.1 | ~3 ×106 5-1 | 36 ± 1 | 20 ± 0.5 | 48 ± 6 |  | 
O=C(O)CN1CCN(CCC(=O)NCCN(Cc2ccccn2)Cc2ccccn2)CCN(CC(=O)O)CCN(CC(=O)O)CC1 [GdL2] | −3.7 ± 0.2 ×10^6 rad/s | 100 ± 1 ×10^6 s^−1 | 10.9 ± 0.263 | 4.09 ± 0.048 | 320 ± 11 | −3.7 ± 0.2 | 0.263 ± 0.0024 | 0.13 ± 0.01 10^20 s^−2 | 7.1 ± 0.1 |  | 37 ± 1 | 28 ± 0.3 | 49 ± 7 | ~30 | 0.1
O=C(O)CCN1CCN(CC(=O)O)CCN(CC(=O)NCCN(Cc2ccccn2)Cc2ccccn2)CCN(CC(=O)O)CC1 [GdL3] | −3.7 ×10^6 rad/s | 90 ± 0.2 ×10^6 s^−1 | 11.2 ± 0.239 | 4.11 ± 0.024 | 320 | −3.7 | 0.263 | 0.13 10^20 s^−2 | 7.1 |  | 37 ± 1 | 30 ± 0.6 | 51 ± 7 | ~30 | 0.1
O=C(O)CN1CCN(CC(=O)O)CCN(CC(=O)NCCN(CCc2ccccn2)Cc2ccccn2)CCN(CC(=O)O)CC1 [GdL4] | −4.0 ± 0.2 ×10^6 rad/s | 3.0 ± 0.1 ×10^6 s^−1 | 3.61 ± 0.359 | 4.16 ± 0.048 | 350 ± 12 | −4.0 ± 0.4 | 0.239 | 0.16 10^20 s^−2 | 11 | ~3 ×106 5-1 | 42 ± 1 | 12 ± 0.3 | 55 ± 12 |  | 
O=C(O)CN1CCN(CCC(=O)NCCN(CCc2ccccn2)Cc2ccccn2)CCN(CC(=O)O)CCN(CC(=O)O)CC1 [GdL5] | −3.9 ± 0.3 ×10^6 rad/s | 100 ± 1 ×10^6 s^−1 | 10.9 ± 0.311 | 3.59 | 305 ± 10 | −3.9 ± 0.2 | 0.239 | 0.67 ± 0.2 10^20 s^−2 | 14 ± 0.2 |  | 43 ± 1 | 12 ± 0.3 | 54 ± 1 | ~30 | 
